Assays:
Sprague Dawley rats = assay: Safety evaluation of inhaled composition: cage-side observation of upper airway irritation; assay type: in vivo; settings: nebulized, nose-only inhalation, 6 μg/kg/day for 10 days; frequency of clinical signs in 10 inhalations; n = 3
Protocol: In this study, 8 male Sprague Dawley rats (purchased from BioLASCO Taiwan Co., Ltd.) were divided into 3 groups: control group (n=2), comparative group (n=3) and experimental group (n=3). The experimental group rats and the comparative group rats were placed in restraining tubes and given nebulized treprostinil liposomal composition LB11500 from Example 2 and free treprostinil solution, respectively, at a dosage of 6 μg/kg/day for 10 days, via a 20-port nose-only Buxco inhalation exposure system (DSI, USA). An air flow carried aerosol generated by mesh vibrating nebulizer was provided to the system tower where the rats are encased in, at a rate of 10 L/min. The control group rats received no exposure to the drug.
During the study, cage-side clinical observation was performed on each rat by a single observer to record incidences of upper airway irritation due to the inhaled nebulized treprostinil liposomal composition or free treprostinil solution. Manifestations of upper airway irritation include tension, sneezing, erythematous pinnae, tremor, hunched posture, piloerection, tachypnea and labored breathing, hyperpnea and epistaxis.

[1] = In vivo pharmacokinetics study, intra-tracheal administration, plasma treprostinil by LC-MS/MS; parameters: species or system Sprague-Dawley rats; settings: rat, FIGS. 1A and 1B
Protocol: In this in vivo PK study, Sprague-Dawley rats (purchased from BioLASCO Taiwan Co., Ltd.) were anaesthetized with isoflurane, and positioned securely on its back to an arched platform in a dorsal position at a 45° to 50° plane using a ribbon hooked around upper incisors. A microspray aerosol tip (Microsprayer, PennCentury, Philadelphia, USA) was inserted to the tracheal bifurcation of each rat, and a test sample (i.e., compositions in Table 2 or free treprostinil solution) was administered intra-tracheally to each rat at a given dose using a high-pressure syringe that is attached to the microspray aerosol device. […] The blood sample was then centrifuged at approximately 2500×g for 15 min and at 4±2° C. within 1 hour of collection, so as to separate the plasma from the blood cells. Approximately 0.1 mL of the obtained plasma sample from each rat was added into a new storage tube and stored in a freezer with a temperature maintained at −70±2° C. […] The obtained supernatant (150 μL) was mixed with an equal volume of H2O and analyzed by liquid chromatography-tandem mass spectrometry (LC-MS/MS) to determine the treprostinil concentration in the plasma sample of the rat. […]

- time at which plasma treprostinil concentration peaked [1]: ≤ 5 min
SMILES: CCCCC[C@H](O)CC[C@@H]1[C@H]2Cc3cccc(OCC(=O)O)c3C[C@H]2C[C@H]1O [free treprostinil, treprostinil]
- Incidences of upper airway irritation (Sprague Dawley rats): 17
